Measured values reported in patent publication US4341786A, “Pharmaceutical compositions and method of producing central alpha1 agonist activity utilizing octahydrobenzo[f]quinoline compounds” (SmithKline Corporation, priority 1981, dated 1982).
Structures can show the parent of a compound that is named as a salt.

Target: postjunctional alpha1 receptors
Assay: postjunctional alpha1 agonist activity (EC50), isolated segment of rabbit ear artery
Conditions: smooth muscle tension, dose producing 50% of the maximum response (norepinephrine)
From the text: The assay procedure is described by Steinsland et al. J. Pharm. Exp. Ther. 184:346-356, 1973. Briefly, this test comprises sacrificing a white rabbit and removing the central ear artery. The artery is cannulated at both ends and placed in a perfusion chamber. The artery is simultaneously perfused intraluminally and superfused extraluminally with Krebs solution. The compound to be tested can be administered by means of either the intraluminal or extraluminal flow. The sympathetic nerve is excited at four minute intervals by field stimulation. The selective alpha1 agonist activity is measured as the ability to increase perfusion pressure (mm Hg.) without inhibiting response to sympathetic nerve stimulation.
A quantitation of postjunctional alpha1 agonist activity (EC50) is determined for compounds showing activity in the above test. This is accomplished by employing an isolated segment of rabbit ear artery. The segment is mounted in a chamber superfused with oxygenated Krebs solution. The segment is suspended between two tungsten wires, one attached to the chamber, the other to a force-displacement transducer so that smooth muscle tension can be measured directly. Before administration of the test drug, norepinephrine is administered in increasing concentration (10^-8 M to 3×10^-6 M) to determine maximum response of the artery. […]

**Q.** For `COc1ccc(OC)c2c1CCC1NCCCC21` (stereo not shown) [7,10-dimethoxy-1,2,3,4,4a,5,6,10-b-octahydro-benzo[f]quinoline hydrochloride], which EC50 is on record?
**A.** 190 nM
